Assay results taken from patent publication US5688787A, “Substituted β-lactam compounds useful as hypochlesterolemic agents and processes for the preparation thereof” (priority 1996, dated 1997).
Read-outs that look alike come from different tables or passages of the source.

What was measured:
ACAT = molecular target: T1, ACAT (Rattus norvegicus, UniProt Q7TQM4); experiment: ACAT Assay (in vitro); format: biochemical; conditions: for inhibition at 10 µM: Conc. 10 µM, negative = apparent stimulation, read-out: ACAT (in vitro) % Inhib.
T1 construct: Rat liver microsomes are used as the source of ACAT; from tissue; host or cells: rat liver microsomes
T1 sequence (Q7TQM4 1-524): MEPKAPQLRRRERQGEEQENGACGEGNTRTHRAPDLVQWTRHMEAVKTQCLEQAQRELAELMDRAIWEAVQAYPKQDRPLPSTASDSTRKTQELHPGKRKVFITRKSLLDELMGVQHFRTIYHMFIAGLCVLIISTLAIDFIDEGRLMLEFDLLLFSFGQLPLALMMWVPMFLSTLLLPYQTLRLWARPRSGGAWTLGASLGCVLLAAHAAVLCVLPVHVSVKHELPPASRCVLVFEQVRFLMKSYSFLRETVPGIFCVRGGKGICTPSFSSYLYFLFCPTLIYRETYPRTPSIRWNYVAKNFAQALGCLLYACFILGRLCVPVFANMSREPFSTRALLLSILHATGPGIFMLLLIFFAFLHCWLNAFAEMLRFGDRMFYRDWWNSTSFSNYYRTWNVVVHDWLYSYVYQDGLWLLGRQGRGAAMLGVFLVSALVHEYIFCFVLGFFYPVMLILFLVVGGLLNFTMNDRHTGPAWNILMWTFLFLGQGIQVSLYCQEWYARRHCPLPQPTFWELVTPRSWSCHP
Procedure: This assay measures the activity of ACAT by measuring the ACAT-mediated transfer of tritiated oleic acid from acyl-CoA to cholesterol to give labelled cholesteryl oleate. Rat liver microsomes are used as the source of ACAT. Assays are performed in round bottom microtiterplates using a total incubation volume of 50 μL. […] The microtiterplate is then floated on the surface of a 37° C. water bath for fifteen minutes. Incubations are started by the addition of 3 μL ^3 H-acyl CoA (1 μCi/well, final concentration of 10 μM acyl CoA). The plate is then returned to the water bath for 15 minutes. The incubations are then terminated by application of 15 μL from each incubation to individual lanes on a thin layer plate (Silica Gel GF 20×20 cm). Standards are applied to several lanes so that the cholesteryl ester band can be identified. After drying, the plates am eluted with 90:10:1 petroleum ether:diethyl ether:acetic acid. The standards am visualized via iodine vapor, and the regions corresponding to cholesteryl ester are scraped into 7 mL scintillation vials. 4 mL of scintillant are added to each vial, and the radioactivity quantified. Background count is determined by the boiled controls. Full activity is determined by activity in the presence of vehicle. The percent inhibition is calculated by subtracting the background from both control and test samples, and the test value is calculated as a percentage of the control.
For the in vitro ACAT data, negative percent inhibition denotes apparent stimulation,while positive numbers denote inhibition.

Hyperlipidemic Hamster = experiment: In Vivo Assay of Hypolipidemic Agents Using the Hyperlipidemic Hamster; conditions: Mesocricetus auratus, po, 168 h, 7 days, percent change versus control, negative = lowering; for change in vivo at 50 mg/kg: 50 mg/kg once daily oral; for change in vivo at 25 mg/kg: 25 mg/kg once daily oral
Summary of the method: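 Test compound in corn oil was given orally once daily for seven days, starting with a 0.5% cholesterol diet, to groups of six hamsters; corn oil alone served as control. Plasma and hepatic lipids were analysed after decapitation. Results are expressed as percent change relative to control.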

[1] = read-out: % Reduction (in vivo) Cholest. Esters
[2] = read-out: % Reduction (in vivo) Serum Cholest.

| SMILES | inhibition at 10 µM (ACAT) [%] | change in vivo at 50 mg/kg (Hyperlipidemic Hamster; [1]) [%] | change in vivo at 50 mg/kg (Hyperlipidemic Hamster; [2]) [%] | change in vivo at 25 mg/kg (Hyperlipidemic Hamster; [1]) [%] | change in vivo at 25 mg/kg (Hyperlipidemic Hamster; [2]) [%] | IC50 (ACAT; rat liver microsomes, read-out: ACAT (in vitro) IC50) [µM] |
| --- | --- | --- | --- | --- | --- | --- |
| COc1ccc(N2C(=O)[C@H](CCCc3ccccc3)[C@H]2c2ccc(N)cc2)cc1 (relative stereo) [Example 8C] | 63 | 0 | 0 |  |  |  |
| COc1ccc(N2C(=O)[C@H](CCCc3ccccc3)[C@H]2c2ccc(O)cc2)cc1 (relative stereo) [Example 8F] | 8 | -48 | -16 | -45 | -20 |  |
| COc1ccc([C@@H]2[C@@H](CCCc3ccccc3)C(=O)N2c2ccc(O)cc2)cc1 (relative stereo) [Example 10A] | -37 | -58 | -19 |  |  |  |
| COc1ccc(N2C(=O)[C@@H](CCCc3ccccc3)[C@H]2c2ccc(CO)cc2)cc1 (relative stereo) [Example 15A] | 2 | 0 | 0 |  |  |  |
| COc1ccc([C@@H]2[C@H](CCCc3ccccc3)C(=O)N2c2ccc(O)cc2)cc1 (relative stereo) [Example 15B] | -55 | -18 | 0 |  |  |  |
| COc1ccc(N2C(=O)[C@@H](CCCc3ccccc3)[C@@H]2c2ccc(CO)cc2)cc1 (relative stereo) [Example 15] | -6 | -46 | -21 |  |  |  |
| COc1ccc(N2C(=O)[C@H](CCCc3ccccc3)[C@H]2c2ccc(C=O)cc2)cc1 (relative stereo) [Example 16A] | 55 | -53 | -30 |  |  |  |
| COc1ccc(N2C(=O)[C@@H](CCCc3ccccc3)[C@H]2c2ccc(C=O)cc2)cc1 (relative stereo) [Example 16] | 42 | -29 | -25 |  |  |  |
| COc1ccc(N2C(=O)[C@@H](CCCc3ccccc3)[C@H]2c2ccc(S(C)(=O)=O)cc2)cc1 (relative stereo) [Example 17A] | 38 | -25 | -11 |  |  |  |
| COc1ccc(N2C(=O)[C@@H](CCCc3ccccc3)[C@H]2c2ccc([S+](C)[O-])cc2)cc1 (relative stereo) [Example 17] | 25 | -52 | -17 |  |  |  |
| COc1ccc(N2C(=O)[C@@H](CCCc3ccccc3)[C@H]2c2ccc(CN3CCOCC3)cc2)cc1 (relative stereo) [Example 19A] | 64 | -34 | -20 |  |  |  |
| COc1ccc(N2C(=O)[C@H](CCCc3ccccc3)[C@@H]2c2ccc(CN3CCN(C)CC3)cc2)cc1 (relative stereo) [Example 19B] | 53 | -31 | -26 |  |  |  |
| COc1ccc(N2C(=O)[C@H](CCCc3ccccc3)[C@H]2c2ccc(CN3CCOCC3)cc2)cc1 (relative stereo) [Example 19] | 24 | -51 | -20 |  |  |  |
| CCOc1ccc(N2C(=O)[C@H](CCCc3ccccc3)[C@@H]2c2ccc(OC)cc2)cc1 (relative stereo) [Example 35B] | 65 | -99 | -53 |  |  |  |
| COc1ccc([C@H]2[C@@H](CCCc3ccccc3)C(=O)N2c2ccc(OCc3ccccc3)cc2)cc1 (relative stereo) [Example 35] | 18 | -32 | -15 |  |  |  |
| CCCCCCCCCC[C@]1(CC)C(=O)N(c2ccc(OC)cc2)[C@H]1c1ccccc1 (stereo in doubt) [Example 3Q] | 3 | 0 | -6 |  |  |  |
| COc1ccc(N2C(=O)C(c3ccccc3)(C3CCCC3)C2c2ccccc2)cc1 (stereo not drawn) [Example 1AC] | 40 | -33 | -16 |  |  |  |
| COc1cc(OC)c(N2C(=O)C(CCCc3ccccc3)C2c2ccccc2)c(OC)c1 (stereo not drawn) [Example 1F] | 61 | 20 | 0 |  |  |  |
| CCCCCCCCCCC1C(=O)N(c2c(OC)cc(OC)cc2OC)C1c1ccccc1 (stereo not drawn) [Example 1U] | 58 | 0 | 0 |  |  | 19 |
| COc1ccc(N2C(=O)C(CCCc3ccccc3)(CCCc3ccccc3)C2C=Cc2ccccc2)cc1 (stereo not drawn) [Example 3N] | 62 | 0 | 0 |  |  |  |
| COc1ccc(C2N(c3ccc(OC)cc3)C(=O)C2(c2ccccc2)c2ccccc2)cc1 (stereo not drawn) [Example 7AC] | 31 | 0 | 0 |  |  |  |
